# Test results reported in ChEMBL document CHEMBL5625232, “Development of selective class I protein arginine methyltransferase inhibitors through fragment-based drug design approach” (Eur J Med Chem, 2023).
# Activity calls are given as the source filed them. The calls are words filed in the database; no cut-off is given here.
# What was measured:
# [1] = target: T1, Protein arginine N-methyltransferase 3 (Homo sapiens, UniProt O60678); test: Displacement of 3H-SAM from human PRMT3 at 10 uM in presence of substrate by SPA assay
# Target sequence in this assay (O60678 2-531 limits assumed): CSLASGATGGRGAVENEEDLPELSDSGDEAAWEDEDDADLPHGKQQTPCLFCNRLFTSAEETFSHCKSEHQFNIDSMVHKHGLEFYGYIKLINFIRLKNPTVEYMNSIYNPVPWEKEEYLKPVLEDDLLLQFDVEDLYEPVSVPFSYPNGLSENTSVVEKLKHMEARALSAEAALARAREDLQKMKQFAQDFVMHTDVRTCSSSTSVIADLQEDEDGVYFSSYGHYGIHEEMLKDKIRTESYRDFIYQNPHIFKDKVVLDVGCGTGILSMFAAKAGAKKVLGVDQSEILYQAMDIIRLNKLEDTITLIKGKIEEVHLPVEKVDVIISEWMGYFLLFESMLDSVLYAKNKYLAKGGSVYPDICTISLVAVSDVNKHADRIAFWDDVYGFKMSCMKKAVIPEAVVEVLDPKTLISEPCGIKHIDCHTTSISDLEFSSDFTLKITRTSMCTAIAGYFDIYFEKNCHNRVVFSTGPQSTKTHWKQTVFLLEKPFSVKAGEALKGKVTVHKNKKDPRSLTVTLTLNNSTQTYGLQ
# [2] = target: T2, Protein arginine N-methyltransferase 8 (Homo sapiens, UniProt Q9NR22); test: Displacement of 3H-SAM from human PRMT8 in presence of substrate by SPA assay
# Target sequence in this assay (Q9NR22 whole entry): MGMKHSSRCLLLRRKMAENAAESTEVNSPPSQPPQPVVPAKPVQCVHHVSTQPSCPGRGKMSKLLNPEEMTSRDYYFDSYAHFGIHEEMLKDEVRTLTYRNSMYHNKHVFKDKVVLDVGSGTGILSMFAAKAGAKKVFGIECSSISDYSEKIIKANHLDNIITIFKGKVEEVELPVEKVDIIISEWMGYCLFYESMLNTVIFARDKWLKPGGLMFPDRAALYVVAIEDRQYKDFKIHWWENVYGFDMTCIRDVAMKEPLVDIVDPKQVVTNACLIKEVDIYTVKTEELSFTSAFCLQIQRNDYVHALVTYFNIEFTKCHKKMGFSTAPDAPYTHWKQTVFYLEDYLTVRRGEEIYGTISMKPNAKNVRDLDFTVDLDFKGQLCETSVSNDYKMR
# [3] = target: T3, Histone-arginine methyltransferase CARM1 (Homo sapiens, UniProt Q86X55); test: Displacement of 3H-SAM from human PRMT4 in presence of substrate by SPA assay
# T3 sequence (Q86X55 whole entry): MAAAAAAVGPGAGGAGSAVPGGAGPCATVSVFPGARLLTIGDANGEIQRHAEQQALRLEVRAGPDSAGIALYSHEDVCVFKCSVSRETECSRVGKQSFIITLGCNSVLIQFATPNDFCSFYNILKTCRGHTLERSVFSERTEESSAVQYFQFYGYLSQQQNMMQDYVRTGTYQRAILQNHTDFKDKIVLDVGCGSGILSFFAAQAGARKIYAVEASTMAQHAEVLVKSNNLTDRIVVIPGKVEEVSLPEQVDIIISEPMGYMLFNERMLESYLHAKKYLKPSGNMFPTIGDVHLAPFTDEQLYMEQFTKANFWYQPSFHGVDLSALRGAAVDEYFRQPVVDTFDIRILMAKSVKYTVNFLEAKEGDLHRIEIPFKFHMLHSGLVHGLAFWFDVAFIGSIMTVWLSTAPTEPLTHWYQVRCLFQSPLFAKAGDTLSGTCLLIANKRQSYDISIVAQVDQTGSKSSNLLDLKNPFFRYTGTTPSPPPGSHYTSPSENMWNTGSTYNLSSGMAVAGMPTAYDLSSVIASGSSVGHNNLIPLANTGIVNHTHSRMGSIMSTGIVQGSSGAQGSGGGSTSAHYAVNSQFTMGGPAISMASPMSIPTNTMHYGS
# [4] = target: T4, Histone-arginine methyltransferase CARM1 (Homo sapiens) (UniProt Q86X55); test: Displacement of 3H-SAM from human PRMT4 at 10 uM in presence of substrate by SPA assay
# T4 sequence (whole entry): T3 sequence (Q86X55 whole entry)
# [5] = Stability in human plasma assessed as compound remaining measured after 2 hrs by LC-MS/MS analysis; type: ADME, cell-free; details: read-out: Stability
# [6] = target: Protein arginine N-methyltransferase 5 (Homo sapiens) (UniProt O14744); test: Displacement of 3H-SAM from human PRMT5 at 10 uM in presence of substrate by SPA assay
# [7] = target: T5, Protein arginine N-methyltransferase 6 (Homo sapiens, UniProt Q96LA8); test: Displacement of 3H-SAM from human PRMT6 at 10 uM in presence of substrate by SPA assay
# Target sequence in this assay (Q96LA8 whole entry, looked up): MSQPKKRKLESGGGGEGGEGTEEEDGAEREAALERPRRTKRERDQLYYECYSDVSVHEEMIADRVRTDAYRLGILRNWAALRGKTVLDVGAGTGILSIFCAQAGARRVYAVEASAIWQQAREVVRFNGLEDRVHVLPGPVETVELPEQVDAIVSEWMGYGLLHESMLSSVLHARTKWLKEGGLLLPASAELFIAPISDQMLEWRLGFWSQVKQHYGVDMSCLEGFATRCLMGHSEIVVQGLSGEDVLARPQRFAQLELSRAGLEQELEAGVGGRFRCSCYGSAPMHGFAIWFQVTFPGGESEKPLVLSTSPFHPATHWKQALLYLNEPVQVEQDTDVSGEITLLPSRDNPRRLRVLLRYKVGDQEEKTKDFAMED
# [8] = target: T6, Protein arginine N-methyltransferase 7 (Homo sapiens) (UniProt Q9NVM4); test: Displacement of 3H-SAM from human PRMT7 at 10 uM in presence of substrate by SPA assay
# T6 sequence (whole entry): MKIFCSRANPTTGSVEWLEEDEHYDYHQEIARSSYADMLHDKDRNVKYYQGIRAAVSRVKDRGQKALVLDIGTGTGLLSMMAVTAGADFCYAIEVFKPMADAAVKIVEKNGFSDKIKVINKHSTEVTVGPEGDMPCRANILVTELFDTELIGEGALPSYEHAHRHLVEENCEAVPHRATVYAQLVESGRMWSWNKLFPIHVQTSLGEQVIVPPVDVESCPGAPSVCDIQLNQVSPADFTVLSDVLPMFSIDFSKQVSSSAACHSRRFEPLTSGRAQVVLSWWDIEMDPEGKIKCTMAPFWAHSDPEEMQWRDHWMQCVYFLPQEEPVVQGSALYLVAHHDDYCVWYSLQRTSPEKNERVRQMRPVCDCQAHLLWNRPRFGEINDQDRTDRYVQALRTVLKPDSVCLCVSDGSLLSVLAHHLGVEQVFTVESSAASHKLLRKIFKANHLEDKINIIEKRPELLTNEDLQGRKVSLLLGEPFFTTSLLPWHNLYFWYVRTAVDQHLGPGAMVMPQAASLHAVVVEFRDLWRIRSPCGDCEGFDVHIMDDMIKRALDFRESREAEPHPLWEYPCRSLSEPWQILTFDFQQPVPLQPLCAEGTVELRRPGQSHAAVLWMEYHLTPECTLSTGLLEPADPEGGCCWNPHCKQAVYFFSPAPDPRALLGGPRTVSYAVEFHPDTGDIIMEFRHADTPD
# [9] = target: T5, Protein arginine N-methyltransferase 6; test: Displacement of 3H-SAM from human PRMT6 in presence of substrate by SPA assay
# Target sequence in this assay (Q96LA8 whole entry): as the sequence (Q96LA8 whole entry, looked up) above
# [10] = target: T2, Protein arginine N-methyltransferase 8; test: Displacement of 3H-SAM from human PRMT8 at 10 uM in presence of substrate by SPA assay
# Target sequence in this assay (Q9NR22 2-394 limits assumed): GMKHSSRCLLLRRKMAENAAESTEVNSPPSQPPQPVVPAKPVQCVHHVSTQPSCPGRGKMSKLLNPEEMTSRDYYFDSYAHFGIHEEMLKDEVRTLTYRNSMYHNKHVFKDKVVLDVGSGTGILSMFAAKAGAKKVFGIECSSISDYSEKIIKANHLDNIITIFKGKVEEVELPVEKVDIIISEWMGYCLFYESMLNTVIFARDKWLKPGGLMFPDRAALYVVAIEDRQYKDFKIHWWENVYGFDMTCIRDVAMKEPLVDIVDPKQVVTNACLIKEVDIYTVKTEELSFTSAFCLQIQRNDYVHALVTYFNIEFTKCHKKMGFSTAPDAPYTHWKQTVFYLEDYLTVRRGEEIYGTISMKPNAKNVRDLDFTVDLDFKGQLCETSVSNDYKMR
# [11] = Metabolic stability in human liver microsomes assessed as half life preincubated for 10 mins followed by NADPH addition measured for 60 mins by LC-MS/MS analysis; type: ADME, Microsome; details: time 70 min
# [12] = target: T1, Protein arginine N-methyltransferase 3; test: Displacement of 3H-SAM from human PRMT3 in presence of substrate by SPA assay
# Target sequence in this assay (O60678 whole entry): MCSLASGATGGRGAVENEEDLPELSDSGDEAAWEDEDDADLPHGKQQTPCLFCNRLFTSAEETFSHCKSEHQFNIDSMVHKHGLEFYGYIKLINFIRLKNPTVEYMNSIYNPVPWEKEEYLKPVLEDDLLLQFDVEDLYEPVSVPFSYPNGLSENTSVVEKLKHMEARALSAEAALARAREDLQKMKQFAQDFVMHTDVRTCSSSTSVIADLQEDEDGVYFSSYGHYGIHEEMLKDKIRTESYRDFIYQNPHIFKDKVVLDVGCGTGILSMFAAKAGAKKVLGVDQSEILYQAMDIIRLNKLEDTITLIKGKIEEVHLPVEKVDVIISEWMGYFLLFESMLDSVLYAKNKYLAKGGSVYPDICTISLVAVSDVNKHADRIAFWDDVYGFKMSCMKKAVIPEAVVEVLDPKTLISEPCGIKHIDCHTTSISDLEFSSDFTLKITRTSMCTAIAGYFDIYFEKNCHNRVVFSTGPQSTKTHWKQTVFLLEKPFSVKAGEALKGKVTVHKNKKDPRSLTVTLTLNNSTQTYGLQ
# [13] = target: T7, Protein arginine N-methyltransferase 9 (Homo sapiens) (UniProt Q6P2P2); test: Displacement of 3H-SAM from human PRMT9 at 10 uM in presence of substrate by SPA assay
# T7 sequence (whole entry): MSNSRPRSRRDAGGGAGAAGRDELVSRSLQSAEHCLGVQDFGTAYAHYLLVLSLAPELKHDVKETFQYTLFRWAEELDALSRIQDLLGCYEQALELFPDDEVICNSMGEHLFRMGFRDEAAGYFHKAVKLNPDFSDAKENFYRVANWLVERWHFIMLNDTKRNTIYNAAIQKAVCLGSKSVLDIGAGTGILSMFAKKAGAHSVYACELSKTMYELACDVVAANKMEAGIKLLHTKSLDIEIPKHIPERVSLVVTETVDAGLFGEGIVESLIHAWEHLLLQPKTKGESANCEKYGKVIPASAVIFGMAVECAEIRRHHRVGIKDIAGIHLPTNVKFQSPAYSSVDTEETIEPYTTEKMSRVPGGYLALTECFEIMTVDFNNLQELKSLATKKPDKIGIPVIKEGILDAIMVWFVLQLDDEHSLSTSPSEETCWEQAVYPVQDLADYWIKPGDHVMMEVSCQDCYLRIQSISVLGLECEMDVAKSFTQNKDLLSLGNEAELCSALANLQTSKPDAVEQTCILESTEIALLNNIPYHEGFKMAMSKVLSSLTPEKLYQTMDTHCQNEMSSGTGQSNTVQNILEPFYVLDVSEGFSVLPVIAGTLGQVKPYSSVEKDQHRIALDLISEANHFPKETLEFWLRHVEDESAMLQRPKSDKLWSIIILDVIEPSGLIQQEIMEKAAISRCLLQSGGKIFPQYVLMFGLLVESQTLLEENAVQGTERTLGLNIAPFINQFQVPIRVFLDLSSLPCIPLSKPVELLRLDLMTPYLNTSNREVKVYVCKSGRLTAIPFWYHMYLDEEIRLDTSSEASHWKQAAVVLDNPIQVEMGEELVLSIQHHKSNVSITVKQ
# Sequence of Protein arginine N-methyltransferase 5 (Homo sapiens) (O14744 whole entry): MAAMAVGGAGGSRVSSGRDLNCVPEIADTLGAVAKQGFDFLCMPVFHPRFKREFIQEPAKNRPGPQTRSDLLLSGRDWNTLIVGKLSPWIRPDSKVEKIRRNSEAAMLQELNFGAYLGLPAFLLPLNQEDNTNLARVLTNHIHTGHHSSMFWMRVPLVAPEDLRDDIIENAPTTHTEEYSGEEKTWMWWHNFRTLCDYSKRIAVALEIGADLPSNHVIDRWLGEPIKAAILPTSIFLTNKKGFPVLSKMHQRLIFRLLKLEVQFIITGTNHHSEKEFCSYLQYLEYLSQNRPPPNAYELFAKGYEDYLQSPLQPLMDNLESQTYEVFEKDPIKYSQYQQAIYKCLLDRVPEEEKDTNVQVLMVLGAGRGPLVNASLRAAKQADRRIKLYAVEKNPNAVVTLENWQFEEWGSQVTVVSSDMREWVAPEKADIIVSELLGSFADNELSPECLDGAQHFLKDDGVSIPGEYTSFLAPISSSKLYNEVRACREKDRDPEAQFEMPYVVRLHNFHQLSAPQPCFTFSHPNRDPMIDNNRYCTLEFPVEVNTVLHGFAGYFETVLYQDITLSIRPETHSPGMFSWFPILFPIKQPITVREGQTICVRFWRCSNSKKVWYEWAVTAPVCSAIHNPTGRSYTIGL
SMILES,inhibition [1],IC50 [2] [µM],IC50 [3] [µM],inhibition [4],remaining at 2 h [5] [%],inhibition [6],inhibition [7],inhibition [8],IC50 [9] [µM],inhibition [10],half-life [11] [min],IC50 [12] [mM],inhibition [13]
CNCCN1CC[C@@H](NC(=O)c2ccc3c(Nc4ccc(CN)cc4)ncnc3c2)C1,Active,794,37,Active,71.2,Active,Active,Active,253,Active,23,3.57,Active
CNCCN1CCC(NC(=O)c2ccc3c(Nc4ccc(CN)cc4)ncnc3c2)C1 (racemic),Active,2430,80,Active,91.3,Active,Active,Active,703,Active,10.9,3.12,Active
CNCCN1CC[C@H](NC(=O)c2ccc3c(Nc4ccc(CN)cc4)ncnc3c2)C1,Active,823,92,Active,–,Active,Active,Active,436,Active,–,1.39,Active
